For series [1] the following is noted: 21-membered ring.
For series [2] the following is noted: from 5,5′-(propane-1,3-diylbis(oxy))bis(4-chloro-3-nitrobenzamide) + butane-1,4-diamine; snar bond; 15-membered ring; DIEA; DMSO; 714.0 mM; 120.0 °C; 2 steps.
For series [3] the following is noted: amide bond, 2 steps.

Like-named read-outs stand apart in the source and are kept apart here.

Compound `CCn1nc(C)c2c1C(=O)Nc1nc3cc(C(N)=O)ccc3n1CC=CCn1c(nc3cc(C(N)=O)ccc31)NC(=O)c1cc(C)nn1CCCCC2` gave a ring closure, yield of all isomers (from C=CCn1c(NC(=O)c2cc(C)nn2CCCCCc2c(C)nn(CC)c2C(=O)Nc2nc3cc(C(N)=O)ccc3n2CC=C)nc2cc(C(N)=O)ccc21, rcm bond, Hoveyda-Grubbs II, 1,2-dichloroethane, 2.69 mM, 100.0 °C, 4.0 h) of 35%. The ring closure, isolated yield in series [1] (from C=CCn1c(NC(=O)c2cc(C)nn2CCCCCc2c(C)nn(CC)c2C(=O)Nc2nc3cc(C(N)=O)ccc3n2CC=C)nc2cc(C(N)=O)ccc21, rcm bond, Hoveyda-Grubbs II (20 mol%), DCE, 2.69 mM, 100.0 °C) is 35%.

`CCn1nc(C)c2c1C(=O)Nc1nc3cc(C(N)=O)ccc3n1CCCCn1c(nc3c(CNC(=O)OC(C)(C)C)cccc31)NC(=O)c1cc(C)nn1CCCCC2` returned a ring closure, yield of all isomers (from CCn1nc(C)c(CCCCCn2nc(C)cc2C(=O)Nc2nc3c(CNC(=O)OC(C)(C)C)cccc3n2CCCCn2c(N)nc3cc(C(N)=O)ccc32)c1C(=O)O, amide bond, EDC/HOBt, DIEA, cat. DMAP, DMF, 18.2 mM, 60.0 °C, 6.0 h) of 56%. In addition, the ring closure, isolated yield in series [1] (from CCn1nc(C)c(CCCCCn2nc(C)cc2C(=O)Nc2nc3c(CNC(=O)OC(C)(C)C)cccc3n2CCCCn2c(N)nc3cc(C(N)=O)ccc32)c1C(=O)O, amide bond, EDC/HOBt/DIEA/DMAP, DMF, 18.2 mM, 60.0 °C) stood at 56%.

With `CCn1nc(C)c2c1C(=O)Nc1nc3cc(C(N)=O)ccc3n1CCCCn1c(nc3c(N(C)Cc4ccc(OC)cc4)cccc31)NC(=O)c1cc(C)nn1CCCCC2`, the ring closure, yield of all isomers (from CCn1nc(C)c(CCCCCn2nc(C)cc2C(=O)Nc2nc3c(N(C)Cc4ccc(OC)cc4)cccc3n2CCCCn2c(N)nc3cc(C(N)=O)ccc32)c1C(=O)O, amide bond, EDC/HOBt/DMAP, DMF, 23.7 mM, 60.0 °C, 32.0 h) came to 20.4%. The same compound displayed a ring closure, isolated yield in series [1] (from CCn1nc(C)c(CCCCCn2nc(C)cc2C(=O)Nc2nc3c(N(C)Cc4ccc(OC)cc4)cccc3n2CCCCn2c(N)nc3cc(C(N)=O)ccc32)c1C(=O)O, amide bond, EDC/HOBt/DMAP, DMF, 23.7 mM, 60.0 °C) of 20.4%.

As to `NC(=O)c1cc2c(c([N+](=O)[O-])c1)NCCCCNc1c(cc(C(N)=O)cc1[N+](=O)[O-])OCCCO2`, in series [2], the ring closure, crude yield is 90%.

For the compound “2-amino-1-(3-(3-(2-(2-amino-5-carbamoyl-1H-benzo[d]imidazol-1-yl)ethyl)phenyl)-propyl)-1H-benzo[d]imidazole-5-carboxamide + 4-(5-(5-carboxy-3-methyl-1H-pyrazol-1-yl)pentyl)-1-ethyl-3-methyl-1H-pyrazole-5-carboxylic acid”, the ring closure, yield after HPLC in series [3] (the molecule shown is the open-chain precursor, 25-membered ring, HATU, NMP, 40.3 mM, 40.0 °C) amounted to 0.6%.

Take “8-Ethyl-10,13,13,18-tetramethyl-7,20-dioxo-6,7,8,11,12,13,14,15,20,21,28,29,30,31-tetradecahydrobenzo[4,5]imidazo[1,2-a]benzo[4,5]imidazo[2,1-p]dipyrazolo[5,1-e:4′,3′-1][1,3,6,15,17]pentaazacyclohenicosine-3,24-dicarboxamide”: the ring closure, yield after HPLC in series [3] (21-membered ring, HATU, NMP, 51.0 mM, 40.0 °C) was determined as 3.4%.

“8-Ethyl-10,17-dimethyl-7,19-dioxo-7,8,11,12,13,14,19,20,27,28,29,30-dodecahydro-6H-benzo[4,5]imidazo[1,2-a]benzo[4,5]imidazo[2,1-o]dipyrazolo[5,1-e:4′,3′-k][1,3,6,14,16]pentaazacycloicosine-3,23-dicarboxamide” came in with a ring closure, yield after HPLC in series [3] (20-membered ring, HATU/DIEA, NMP, 61.5 mM, 120.0 °C) of 2%.

“8-Ethyl-10,18-dimethyl-7,20-dioxo-6,7,8,11,14,15,20,21,28,29,30,31-dodecahydrobenzo[4,5]imidazo[1,2-a]benzo[4,5]imidazo[2,1-p]dipyrazolo[5,1-e:4′,3′-1][1,3,6,15,17]pentaazacyclohenicosine-3,24-dicarboxamide” displayed a ring closure, yield after HPLC in series [3] (21-membered ring, HATU/DIEA, NMP, 92.4 mM, 80.0 °C) of 1.7%.

Compound “8-ethyl-10,18,30-trimethyl-7,20-dioxo-7,8,11,12,13,14,15,20,21,28,29,30,31,32-tetradecahydro-benzo[4,5]imidazo[2,1-b]benzo[4,5]imidazo[1,2-l]dipyrazolo[5,1-m:4′,3′-t][1,3,6,9,11,14]hexaazacyclodocosine-3,24-dicarboxamide” displayed a ring closure, yield after HPLC in series [3] (22-membered ring, HATU/DIEA, NMP, 68.9 mM, 140.0 °C) of 4.56%.

As to “(1r,39r)-14-ethyl-16,25-dimethyl-12,28-dioxo-2,9,11,14,15,23,24,29,31,38-decaazaoctacyclo[37.2.2.0^2,^1^0.0^3,^8.0^13,^1^7.0^23,^2^7.0^3^0,^3^8.0^32,^3^7]tritetraconta-3,5,7,9,13(17),15,24,26,30,32,34,36-dodecaene-6,34-Dicarboxamide”, the ring closure, isolated yield in series [1] (amide bond, HATU/DIEA, DMF, 116.0 mM, 80.0 °C, 2 steps) turned out to be 0.3%.

As to “(E)-1,26-Dibromo-8-ethyl-10,18-dimethyl-7,20-dioxo-6,7,8,11,12,13,14,15,20,21,28,31-dodecahydrobenzo[4,5]imidazo[1,2-a]benzo[4,5]imidazo[2,1-p]dipyrazolo[5,1-e:4′,3′-1][1,3,6,15,17]pentaazacyclohenicosine-3,24-dicarboxamide”, in series [1] (amide bond, HATU/DIEA, DMF, 59.3 mM, 90.0 °C, 2 steps), the ring closure, isolated yield is 24%.

As for “(E)-8-Ethyl-1,26-dimethoxy-10,18-dimethyl-7,20-dioxo-6,7,8,11,12,13,14,15,20,21,28,31-dodecahydrobenzo[4,5]imidazo[1,2-a]benzo[4,5]imidazo[2,1-p]dipyrazolo[5,1-e:4′,3′-1][1,3,6,15,17]pentaazacyclohenicosine-3,24-dicarboxamide, bis trifluoroacetic acid salt”, the ring closure, yield after HPLC in series [3] (21-membered ring, HATU/TEA, DMF, 24.4 mM, 100.0 °C) came to 1%.

(Values after patent publication US11970480.)
